Measurements reported in patent US20100055712A1, “Oligopeptides for treatment of osteoporosis and other bone diseases and methods therefor” (Washington University, priority 2008, published 2010).
*1 amine or outer side, *2 acyl side, *3 side chain or, on linkers, in order; H or OH if unused. Where a SMILES comes first, the peptide text is derived from it. [ ]: non-standard residue; d: D form. The star is where a group is joined. X1 = CC(N[*:1])C(=O)C(F)(F)C(=O)[*:2]; Boc = CC(C)(C)OC(=O)*

System: LRP1 expression in WT MEF cells
Assay: LRP1 expression in WT MEF cells after treatment with γ-secretase inhibitors (western blot)
Type: cell-based, mouse
Settings: FIGS. 5I and 5J
Source text: The requirement of γ-secretase activity in LRP1 regulation was further verified by two alternative approaches.

SMILES	LRP1 expression
CCC(C)C(NC(=O)C(NC(=O)OC(C)(C)C)C(C)C)C(=O)NC(C)C(=O)C(F)(F)C(=O)NC(C(=O)NC(C(=O)OC)C(C)CC)C(C)C (stereo not drawn) [DFK, DFK167] (Boc-VI[X1]VI-OMe; configuration not given here)	enhanced LRP1 expression
C[C@H](NC(=O)Cc1cc(F)cc(F)c1)C(=O)N[C@H](C(=O)OC(C)(C)C)c1ccccc1 [DAPT]	enhanced LRP1 expression
CC(C)C[C@H](NC(=O)[C@H](Cc1ccccc1)C[C@@H](O)[C@H](Cc1ccccc1)NC(=O)OC(C)(C)C)C(=O)N[C@@H](Cc1ccccc1)C(N)=O [L685,458]	enhanced LRP1 expression
